Results on 17 molecules are retold here after patent US7897602B2, “Indolinone compounds as kinase inhibitors” (Development Center for Biotechnology, priority 2009, dated 2011).

The term inhibition denotes the relative decrease from the control value, in per cent. One may read the IC50 as the concentration needed to halve the response being measured.

Holding throughout (format): biochemical
The target of assay [1] is T1, Aurora B kinase (Homo sapiens, UniProt Q96GD4).
T1 construct: purchased Cell signaling
The assay is described as follows: Aurora B kinase assay ([γ-33P]ATP, CHOCKtide substrate). To be noted: for inhibition at 1 µM: 1.0 μM test compound. An outline of the steps: (§1)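 Radiometric filter-binding format: 33P incorporation into CHOCKtide counted after acid stop and filtration. Reactions ran 30 min at 33 °C, Aurora A with 10 μM ATP, Aurora B with 40 μM ATP. IC50 taken as concentration giving half-maximal kinase inhibition.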

In assay [2] the target is T2, PDGFR-β kinase (Homo sapiens, UniProt P09619).
T2 construct: recombinant N-terminal 6×His-tagged PDGFR-β kinase domain construct expressed by baculovirus; 6xHis (N); made in house
The assay is described as follows: PDGFR-β kinase assay (33P incorporation into Poly(Glu-Tyr)). The following applies: 500 nM test compound. An outline of the steps: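 His-tagged PDGFR-β kinase domain (55 ng) with Poly(Glu-Tyr) 4:1, 30 μM ATP plus [33P]-γ-ATP, pH 7.0 MnCl2 buffer, and 500 nM compound for 30 min at 30° C. Filter-bound radioactivity counted; inhibition computed relative to DMSO control.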

Assay [3] addresses T3, c-Met kinase (Homo sapiens, UniProt P08581).
T3 construct: recombinant N-terminal 6×His-tagged c-Met kinase domain construct expressed from baculovirus; 6xHis (N); made in house
The assay is described as follows: c-Met kinase assay (33P incorporation into Poly(Glu-Tyr)). To be noted: 500 nM test compound. An outline of the steps:
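Single-concentration test (500 nM compound) at 30° C for 30 min, pH 7.0 MOPS buffer with 100 μM ATP and [33P]-γ-ATP. Enzyme was baculovirus-expressed 6×His c-Met kinase domain (5 ng), substrate Poly(Glu-Tyr) 4:1. Inhibition percentage derived from filter-bound counts relative to DMSO control.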

The target in assay [4] is T4, Aurora A kinase (Homo sapiens, UniProt O14965).
T4 construct: purchased Upstate
T4 sequence (O14965 1-403): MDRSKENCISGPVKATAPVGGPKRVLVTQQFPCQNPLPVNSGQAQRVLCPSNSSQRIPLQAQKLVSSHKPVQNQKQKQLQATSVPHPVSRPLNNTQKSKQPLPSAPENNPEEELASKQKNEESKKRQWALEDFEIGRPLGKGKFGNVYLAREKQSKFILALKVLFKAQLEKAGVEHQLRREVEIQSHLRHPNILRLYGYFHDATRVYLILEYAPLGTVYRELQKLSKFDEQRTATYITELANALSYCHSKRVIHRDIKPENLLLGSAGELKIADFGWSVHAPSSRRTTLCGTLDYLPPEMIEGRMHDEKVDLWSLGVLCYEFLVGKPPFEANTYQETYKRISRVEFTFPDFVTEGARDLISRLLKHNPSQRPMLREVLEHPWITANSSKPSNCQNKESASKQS
The assay can be described thus: Aurora A kinase assay ([γ-33P]ATP, CHOCKtide substrate). The following applies: for inhibition at 1 µM: 1.0 μM test compound. An outline of the steps:
as §1

T3 sequence (P08581 1078-1345 limits assumed): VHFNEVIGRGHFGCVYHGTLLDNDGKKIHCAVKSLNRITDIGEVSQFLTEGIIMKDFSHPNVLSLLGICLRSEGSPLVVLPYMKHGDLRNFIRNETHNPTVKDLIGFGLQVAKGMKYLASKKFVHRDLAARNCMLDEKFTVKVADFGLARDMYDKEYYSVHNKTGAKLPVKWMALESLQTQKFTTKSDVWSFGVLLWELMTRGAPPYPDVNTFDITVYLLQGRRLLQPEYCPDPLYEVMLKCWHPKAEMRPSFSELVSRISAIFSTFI
T2 sequence (P09619 600-962 limits assumed): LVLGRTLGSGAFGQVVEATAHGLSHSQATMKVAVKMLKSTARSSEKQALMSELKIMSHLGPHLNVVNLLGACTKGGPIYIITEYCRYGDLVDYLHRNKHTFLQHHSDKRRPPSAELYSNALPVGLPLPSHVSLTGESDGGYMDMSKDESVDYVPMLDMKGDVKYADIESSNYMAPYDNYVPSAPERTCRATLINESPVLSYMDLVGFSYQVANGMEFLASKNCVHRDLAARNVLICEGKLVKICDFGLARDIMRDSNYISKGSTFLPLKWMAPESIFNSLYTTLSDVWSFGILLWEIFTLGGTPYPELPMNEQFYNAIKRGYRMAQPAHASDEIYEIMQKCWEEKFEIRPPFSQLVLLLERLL
T1 sequence (Q96GD4 whole entry): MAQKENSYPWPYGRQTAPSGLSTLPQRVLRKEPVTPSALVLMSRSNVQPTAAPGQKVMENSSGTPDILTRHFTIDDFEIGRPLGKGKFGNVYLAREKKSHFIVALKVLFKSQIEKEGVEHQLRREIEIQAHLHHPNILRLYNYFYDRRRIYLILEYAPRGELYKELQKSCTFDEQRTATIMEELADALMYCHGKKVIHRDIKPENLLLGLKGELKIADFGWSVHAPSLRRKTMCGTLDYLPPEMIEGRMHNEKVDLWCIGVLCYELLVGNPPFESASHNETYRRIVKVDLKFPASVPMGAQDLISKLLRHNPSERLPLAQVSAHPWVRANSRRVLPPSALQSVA

Consider `CN1CCN(C(=O)CCc2c(/C=C3\C(=O)Nc4ccc(S(=O)(=O)N5CCCC5)cc43)[nH]c3c2C(=O)CCC3)CC1` [DCB-70120, (Z)-3-((3-(3-(4-methylpiperazin-l-yl)-3-oxopropyl)-4-oxo-4,5,6,7-tetrahydro-1H-indol-2-yl)methylene)-5-(pyrrolidin-1-ylsulfonyl)indolin-2-one], for which the inhibition at 1 µM came out at 21.5% in assay [1] and 50.5% in assay [4]. The inhibition at 0.5 µM in assay [2] turned out to be 7.6%; in assay [3] it was 10%.

As to `COc1ccc(-c2ccc3c(c2)/C(=C/c2[nH]c4c(c2CCC(=O)O)C(=O)CCC4)C(=O)N3)cc1OC` [DCB-70068, (Z)-5-(3,4-dimethoxyphenyl)-3-((3-carboxyethyl-4-oxo-4,5,6,7-tetrahydro-1H-indol-2-yl)methylene)indolin-2-one], the results for the inhibition at 1 µM in assay [1] and in assay [4] were 5.1% and 54%, respectively. Further, the inhibition at 0.5 µM was determined as 20.6% in assay [2] and 18% in assay [3]. For the same molecule, the IC50 in assay [4] came out at 560 nM.

Regarding `O=C(O)CCc1c(/C=C2\C(=O)Nc3ccc(S(=O)(=O)N4CCCCC4)cc32)[nH]c2c1C(=O)CCC2` [DCB-70114, (Z)-5-(piperidin-1-ylsulfonyl)-3-((3-carboxyethyl-4-oxo-4,5,6,7-tetrahydro-1H-indol-2-yl)methylene)indolin-2-one], the IC50 came to 494 nM in assay [1] and 14 nM in assay [4]. Further, the results for the inhibition at 1 µM in assay [1] and in assay [4] were 60.7% and 99.9%, respectively. Besides, the inhibition at 0.5 µM was 5.6% in assay [2] and 3.5% in assay [3].

Take `O=C(O)CCc1c(/C=C2\C(=O)Nc3cc(-c4ccc(F)cc4)ccc32)[nH]c2c1C(=O)CCC2` [DCB-70099, (Z)-6-(4-fluorophenyl)-3-((3-carboxyethyl-4-oxo-4,5,6,7-tetrahydro-1H-indol-2-yl)methylene)indolin-2-one]: the results for the inhibition at 1 µM in assay [1] and in assay [4] were 30% and 47.5%, respectively. Besides, the inhibition at 0.5 µM was 74.6% in assay [2] and 22.7% in assay [3].

As for `CCOC(=O)CCc1c(/C=C2\C(=O)Nc3ccc(NC(=O)Nc4ccccc4)cc32)[nH]c2c1C(=O)CCC2` [DCB-70134, (Z)-ethyl 3-(4-oxo-2-((2-oxo-5-(3-phenylureido)indolin-3-ylidene)methyl)-4,5,6,7-tetrahydro-1H-indol-3-yl)propanoate], the inhibition at 1 µM in assay [1] stood at 5.7%; in assay [4], 16.4%. For the same molecule, the inhibition at 0.5 µM in assay [2] was 24%; in assay [3], -0.3%.

As for `O=C(O)CCc1c(/C=C2\C(=O)Nc3ccc(S(=O)(=O)Cc4ccccc4)cc32)[nH]c2c1C(=O)CCC2` [DCB-70071, (Z)-5-benzylsulfonyl-3-((3-carboxyethyl-4-oxo-4,5,6,7-tetrahydro-1H-indol-2-yl)methylene)indolin-2-one], the inhibition at 1 µM was found to be 11.2% in assay [1] and 82.1% in assay [4]. Besides, the inhibition at 0.5 µM in assay [2] was determined as 43.1%; in assay [3], 65.3%. For the same molecule, the IC50 in assay [4] was 270 nM.

With `COc1ccc(NC(=O)Nc2ccc3c(c2)/C(=C/c2[nH]c4c(c2CCC(=O)O)C(=O)CCC4)C(=O)N3)cc1` [DCB-70094, (Z)-5-(3-(4-methoxyphenyl)ureido)-3-((3-carboxyethyl-4-oxo-4,5,6,7-tetrahydro-1H-indol-2-yl)methylene)indolin-2-one], the inhibition at 1 µM came out at 15.5% in assay [1] and 75.2% in assay [4]. The inhibition at 0.5 µM in assay [2] was 48.5%; in assay [3], 18.9%.

In the case of `O=C(O)CCc1c(/C=C2\C(=O)Nc3ccc(-c4cc5ccccc5s4)cc32)[nH]c2c1C(=O)CCC2` [DCB-70070, (Z)-5-(benzo[b]thiophen-2-yl)-3-((3-carboxyethyl-4-oxo-4,5,6,7-tetrahydro-1H-indol-2-yl)methylene)indolin-2-one], the inhibition at 1 µM in assay [1] is -2.7%; in assay [4], 31.4%. For the same molecule, the results for the inhibition at 0.5 µM in assay [2] and in assay [3] were 18.7% and 19.7%, respectively.

`O=C(O)CCc1c(/C=C2\C(=O)Nc3ccc(S(=O)(=O)Cc4ccc(F)cc4)cc32)[nH]c2c1C(=O)CCC2` [DCB-70072, (Z)-5-(4-fluorobenzylsulfonyl)-3-((3-carboxyethyl-4-oxo-4,5,6,7-tetrahydro-1H-indol-2-yl)methylene)indolin-2-one]: the figures for the inhibition at 1 µM in assay [1] and in assay [4] were 15.5% and 71.1%, respectively. In addition, the inhibition at 0.5 µM in assay [2] was 34.5%; in assay [3], 62.8%. For the same molecule, the IC50 in assay [4] was found to be 443 nM.

As for `O=C(O)CCc1c(/C=C2\C(=O)Nc3ccc(NCc4ccccc4)cc32)[nH]c2c1C(=O)CCC2` [DCB-70132, (Z)-3-(2-((5-(benzylamino)-2-oxoindolin-3-ylidene)methyl)-4-oxo-4,5,6,7-tetrahydro-1H-indol-3-yl)propanoic acid], the inhibition at 1 µM was 26.9% in assay [1] and 33.4% in assay [4]. Moreover, the inhibition at 0.5 µM in assay [2] is 29.3%; in assay [3] it was 13.7%.

In the case of `O=C(O)CCc1c(/C=C2\C(=O)Nc3cc(F)ccc32)[nH]c2c1C(=O)CCC2` [DCB-70123, (Z)-6-fluoro-3-((3-carboxyethyl-4-oxo-4,5,6,7-tetrahydro-1H-indol-2-yl)methylene)indolin-2-one], the inhibition at 1 µM in assay [1] came to 13.3%; in assay [4], 78.1%. Besides, the values for the inhibition at 0.5 µM in assay [2] and in assay [3] were 67.2% and 8.3%, respectively.

On to `CCOC(=O)CCc1c(/C=C2\C(=O)Nc3ccc(NC(=O)Nc4ccc(F)cc4)cc32)[nH]c2c1C(=O)CCC2` [DCB-70136, (Z)-ethyl 3-(2-((5-(3-(4-fluorophenyl)ureido)-2-oxoindolin-3-ylidene)methyl)-4-oxo-4,5,6,7-tetrahydro-1H-indol-3-yl)propanoate], for which the inhibition at 1 µM in assay [1] came out at 0.1%; in assay [4] it was 26.4%. Besides, the inhibition at 0.5 µM in assay [2] is 21.4%; in assay [3], -7.7%.

On to `CCOC(=O)CCc1c(/C=C2\C(=O)Nc3ccc(NS(=O)(=O)c4ccccc4)cc32)[nH]c2c1C(=O)CCC2` [DCB-70102, (Z)-5-phenylsulfonamido-3-((3-(3-ethoxy-3-oxopropyl)-4-oxo-4,5,6,7-tetrahydro-1H-indol-2-yl)methylene)indolin-2-one], for which the results for the IC50 in assay [1] and in assay [4] were 214 nM and 83.5 nM, respectively. Further, the inhibition at 1 µM turned out to be 74.3% in assay [1] and 88.8% in assay [4]. The results for the inhibition at 0.5 µM in assay [2] and in assay [3] were 32.8% and 33.7%, respectively.

On to `CCOC(=O)CCc1c(C=C2C(=S)Nc3cc(Br)ccc32)[nH]c2c1C(=O)CCC2` [DCB-70085, 6-bromo-3-((3-(3-ethoxy-3-oxopropyl)-4-oxo-4,5,6,7-tetrahydro-1H-indol-2-yl)methylene)indolin-2-thione], for which the values for the inhibition at 1 µM in assay [1] and in assay [4] were 10.7% and 11.2%, respectively. Further, the figures for the inhibition at 0.5 µM in assay [2] and in assay [3] were 16.5% and 25.1%, respectively.

Regarding `O=C(O)CCc1c(/C=C2\C(=O)Nc3cc(Br)ccc32)[nH]c2c1C(=O)CCC2` [DCB-70133, (Z)-3-(2-((6-bromo-2-oxoindolin-3-ylidene)methyl)-4-oxo-4,5,6,7-tetrahydro-1H-indol-3-yl)propanoic acid], the inhibition at 1 µM in assay [1] is 6%; in assay [4] it was 2.6%. Moreover, the inhibition at 0.5 µM in assay [2] was 8.3%; in assay [3] it was 3.3%.

As for `O=C(O)CCc1c(/C=C2\C(=O)Nc3ccc(NC(=O)c4ccccc4)cc32)[nH]c2c1C(=O)CCC2` [DCB-70097, (Z)-5-benazmido-3-((3-carboxyethyl-4-oxo-4,5,6,7-tetrahydro-1H-indol-2-yl)methylene)indolin-2-one], the inhibition at 1 µM was found to be 14.2% in assay [1] and 64.7% in assay [4]. The inhibition at 0.5 µM is 21.5% in assay [2] and 14.4% in assay [3].

In the case of `O=C(O)CCc1c(/C=C2\C(=O)Nc3ccc(NS(=O)(=O)c4ccccc4)cc32)[nH]c2c1C(=O)CCCC2` [DCB-70147, (Z)-3-(4-oxo-2-((2-oxo-5-(phenylsulfonamido)indolin-3-ylidene)methyl)-1,4,5,6,7,8-hexahydrocyclohepta[b]pyrrol-3-yl)propanoic acid], the inhibition at 1 µM in assay [1] worked out at 61.3%; in assay [4], 91.9%. Moreover, the inhibition at 0.5 µM stood at 17.3% in assay [2] and 0.2% in assay [3]. Moreover, the IC50 in assay [4] came out at 68.4 nM.
